Usually IC50 stands for the point on the concentration scale where inhibition reaches its midpoint. Read a low IC50 as inhibition by little substance.

Molecules are shown by their SMILES. Starred links: 1 amine or outer side, 2 acyl side, 3 side chain; linkers in the order of their positions; H or OH if unused. Non-standard residues stand in square brackets, D forms with d. Residues, ends and D or L forms follow the SMILES beside them. *: point of attachment. NHCH2CHPh2 = c1ccc(C(CN*)c2ccccc2)cc1; pNA = O=[N+]([O-])c1ccc(N*)cc1; NHPhenethyl = c1ccc(CCN*)cc1; Suc = O=C(CCC(=O)[*:2])[*:1]; Orn = NCCC[C@H](N)C(=O)O

Peptidyl-prolyl cis-trans isomerase A (cyclophilin A, hCyp-18) (Homo sapiens), sequence (P62937 whole entry, looked up): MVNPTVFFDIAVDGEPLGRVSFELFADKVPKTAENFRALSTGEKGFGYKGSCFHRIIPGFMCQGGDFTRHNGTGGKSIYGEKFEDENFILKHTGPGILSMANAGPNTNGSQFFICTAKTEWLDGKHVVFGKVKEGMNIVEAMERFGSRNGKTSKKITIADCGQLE

This assay has as its target Peptidyl-prolyl cis-trans isomerase A (cyclophilin A, hCyp-18) (Homo sapiens) (UniProt P62937). In words: 50% inhibitory concentration of competitive binding against hCyp-18 PPIase activity using uncoupled assay.
In the case of `C[C@H](NC(=O)CCC(=O)O)C(=O)N[C@@H](C)C(=O)N1CCC[C@H]1C(=O)N[C@@H](Cc1ccccc1)C(=O)Nc1ccc([N+](=O)[O-])cc1` [N-[1-(1-Methyl-2-{2-[1-(4-nitro-phenylcarbamoyl)-2-phenyl-ethylcarbamoyl]-pyrrolidin-1-yl}-2-oxo-ethylcarbamoyl)-ethyl]-succinamic acid] (Suc-AAPF-pNA), the IC50 came out at 850 µM. `CC[C@H](C)[C@H](NC(=O)[C@@H]1CCCN1C(=O)CNC(=O)[C@H](C)NC(=O)[C@H](CCCN)NC(=O)[C@@H](NC(C)=O)C(C)C)C(=O)N[C@@H](C)C(N)=O` [1-(2-{2-[2-(2-Acetylamino-3-methyl-butyrylamino)-5-amino-pentanoylamino]-propionylamino}-acetyl)-pyrrolidine-2-carboxylic acid [1-(1-carbamoyl-ethylcarbamoyl)-2-methyl-butyl]-amide] (Ac-V[Orn]AGPIA-NH2): the IC50 was > 10000 µM. With `CC[C@@H]1/C=C(\C)C[C@H](C)C[C@H](OC)[C@H]2O[C@@](O)(C(=O)C(=O)N3CCCC[C@H]3C(=O)O[C@H](/C(C)=C/[C@@H]3CC[C@@H](O)[C@H](OC)C3)[C@H](C)[C@@H](O)CC1=O)[C@H](C)C[C@@H]2OC` the figure was 8 µM; with `CC[C@H](C)[C@H](NC(=O)[C@@H]1CCCN1C(=O)CNC(=O)[C@H](C)NC(=O)[C@H](Cc1cnc[nH]1)NC(=O)[C@@H](NC(C)=O)C(C)C)C(=O)NCCc1ccccc1` (Ac-VHAGPI-NHPhenethyl), 325 µM; with `CC[C@H](C)[C@H](NC(=O)[C@@H]1CCCN1C(=O)CNC(=O)[C@H](C)NC(=O)[C@H](Cc1cnc[nH]1)NC(=O)[C@@H](NC(C)=O)C(C)C)C(=O)NCC(c1ccccc1)c1ccccc1` (Ac-VHAGPI-NHCH2CHPh2), 365 µM.

The record behind these values is BindingDB's records for doi:10.1021/jm9903139 (Departement D'Ingenierie Et D'Etudes Des Proteines, 2000).
